Data from EP0326331B1, “Substituted quinolines and cinnolines” (Dow AgroSciences LLC, priority 1988, dated 1989).

Key:
Format in all cases: in vivo
[1] = test system: Erysiphe graminis tritici (powdery mildew); experiment: Test 1 greenhouse foliar spray screen, powdery mildew on wheat; conditions: disease control rating, foliar spray on wheat, 400 ppm (+++ at 100 ppm)
[2] = test system: Pyricularia oryzae (rice blast); experiment: whole plant or invertebrate; conditions: disease control rating, foliar spray on rice, 400 ppm (+++ at 100 ppm)
[3] = test system: Puccinia recondita tritici (leaf rust); experiment: Test 1 greenhouse foliar spray screen, leaf rust on wheat; conditions: disease control rating, foliar spray on wheat, 400 ppm (+++ at 100 ppm)
[4] = test system: Botrytis cinerea (gray mold); experiment: Test 1 greenhouse foliar spray screen, gray mold on grape berries; conditions: disease control rating, spray on grape berries, 400 ppm (+++ at 100 ppm)
[5] = test system: Pseudoperonospora cubensis (downy mildew); experiment: Test 1 greenhouse foliar spray screen, downy mildew on squash; conditions: disease control rating, foliar spray on squash, 400 ppm (+++ at 100 ppm)
[6] = test system: Cercospora beticola (leaf spot); experiment: Test 1 greenhouse foliar spray screen, leaf spot on sugar beet; conditions: disease control rating, foliar spray on sugar beet, 400 ppm (+++ at 100 ppm)
[7] = test system: Venturia inaequalis (apple scab); experiment: Test 1 greenhouse foliar spray screen, apple scab on apple seedling; conditions: disease control rating, foliar spray on apple seedling, 400 ppm (+++ at 100 ppm)
[8] = test system: Septoria tritici (leaf blotch); experiment: Test 1 greenhouse foliar spray screen, leaf blotch on wheat; conditions: disease control rating, foliar spray on wheat, 400 ppm (+++ at 100 ppm)
[9] = test system: southern armyworm (Spodopetra eridania Cramer); experiment: Mite/insect screen, SAW; conditions: percent mortality, SAW; for mortality at 200 ppm / mortality at 400 ppm: Spodoptera eridania, read-out: SAW RESULTS %; for mortality at 200 ppm: SM & MA RATE 200 PPM
Outline: (§1)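 Compounds dissolved in acetone/alcohol (50:50) with TOXIMUL R and S emulsifiers, diluted in water to test concentrations, and sprayed to runoff on both leaf surfaces at 10 psi, then dried 1 h. For armyworm, excised treated leaves were offered to larvae; percent mortality scored after standard exposure periods.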

[10] = test system: Twospotted spider mites (Tetranychus urticae Koch); experiment: Mite/insect screen, SM; conditions: percent mortality, SAW; for mortality at 200 ppm / mortality at 400 ppm: Tetranychus urticae, read-out: SM RESULTS %; for mortality at 200 ppm: SM & MA RATE 200 PPM
Outline: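 Compounds dissolved in 50:50 acetone/alcohol containing sulfonate/nonionic emulsifier blends, then diluted with water to the indicated concentrations. Leaves sprayed on both surfaces to runoff at 10 psi and dried one hour. Percent mortality scored after standard exposure periods.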

[11] = test system: melon aphids (Aphis gossypii Glover); experiment: Mite/insect screen, MA; conditions: percent mortality, SAW; for mortality at 200 ppm / mortality at 400 ppm: Aphis gossypii, read-out: MA RESULTS %; for mortality at 200 ppm: SM & MA RATE 200 PPM
Outline: as §1

[12] = test system: corn rootworm; experiment: Mite/insect screen, CRW; conditions: percent mortality; for mortality at 12 ppm: CRW RATE 12.00 PPM; for mortality at 12 ppm / mortality at 24 ppm: read-out: CRW RESULTS %
Outline: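 Compounds dissolved in 50:50 acetone/alcohol with TOXIMUL R and S emulsifiers (23 and 13 g/L), then diluted in water to the stated test concentrations. Percent mortality of corn rootworm scored after standard exposure periods.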

SMILES	POWD MDEW [1]	RICE BLAST [2]	LEAF RUST [3]	GRAY MOLD [4]	DOWN MDEW [5]	LEAF SPOT [6]	APPL SCAB [7]	LEAF BLOT [8]	mortality at 200 ppm [9] [%]	mortality at 200 ppm [10] [%]	mortality at 200 ppm [11] [%]	mortality at 12 ppm [12] [%]	mortality at 400 ppm ([9]; SM & MA RATE 400 PPM) [%]	SAW RESULTS % ([9]; SM & MA RATE 400 PPM) [%]	mortality at 400 ppm ([10]; SM & MA RATE 400 PPM) [%]	SM RESULTS % ([10]; SM & MA RATE 400 PPM) [%]	mortality at 400 ppm ([11]; SM & MA RATE 400 PPM) [%]	MA RESULTS % ([11]; SM & MA RATE 400 PPM) [%]	CRW RESULTS % ([12]; CRW RATE 24.00 PPM) [%]	mortality at 24 ppm ([12]; CRW RATE 24.00 PPM) [%]
CC(CNc1ccnc2ccccc12)(c1ccccc1)c1ccccc1 [Example 34, N-(2,2-diphenylpropyl)-4-quinolinamine]	+ (20-89% control at 400 ppm)	+ (20-89% control at 400 ppm)	++ (90-100% control at 400 ppm)	- (0-19% control at 400 ppm)	+++ (90-100% control at 100 ppm)	+ (20-89% control at 400 ppm)	- (0-19% control at 400 ppm)	- (0-19% control at 400 ppm)	0	0	0	0								
Fc1ccc(CCNc2ccnc3ccccc23)cc1 [Example 35, N-[2-(4-fluorophenyl)ethyl]-4-quinolinamine]	+ (20-89% control at 400 ppm)	+ (20-89% control at 400 ppm)	+ (20-89% control at 400 ppm)	- (0-19% control at 400 ppm)	+++ (90-100% control at 100 ppm)	+++ (90-100% control at 100 ppm)	- (0-19% control at 400 ppm)	- (0-19% control at 400 ppm)	0	0	0	0								
COc1ccc(CCNc2ccnc3c(F)cccc23)cc1 [Example 36, 8-fluoro-N-[2-(4-methoxyphenyl)ethyl]-4-quinolinamine]	+ (20-89% control at 400 ppm)	+++ (90-100% control at 100 ppm)	+++ (90-100% control at 100 ppm)	- (0-19% control at 400 ppm)	+++ (90-100% control at 100 ppm)	+++ (90-100% control at 100 ppm)	- (0-19% control at 400 ppm)	+++ (90-100% control at 100 ppm)	0	0	0	0	0	0	0	0	0	0	0	0
COc1ccc(CCNc2ccnc3c(F)cccc23)cc1OC [Example 38, N-[2-(3,4-dimethoxyphenyl)ethyl]-8-fluoro-4-quinolinamine]	+ (20-89% control at 400 ppm)	- (0-19% control at 400 ppm)	++ (90-100% control at 400 ppm)	- (0-19% control at 400 ppm)	+++ (90-100% control at 100 ppm)	+ (20-89% control at 400 ppm)	- (0-19% control at 400 ppm)	- (0-19% control at 400 ppm)	0	0	0	0	0		0		0			0
Fc1cc(F)c2nccc(NCCc3ccc(Cl)cc3)c2c1 [Example 41, N-[2-(4-chlorophenyl)ethyl]-6,8-difluoro-4-quinolinamine]	+ (20-89% control at 400 ppm)	++ (90-100% control at 400 ppm)	+++ (90-100% control at 100 ppm)	- (0-19% control at 400 ppm)	++ (90-100% control at 400 ppm)	+++ (90-100% control at 100 ppm)	- (0-19% control at 400 ppm)	+ (20-89% control at 400 ppm)	80	0	0	0	40		0		0			0
COc1ccc(CCNc2ccnc3cc(C(F)(F)F)ccc23)cc1 [Example 42, N-[2-(4-methoxyphenyl)ethyl]-7-(trifluoromethyl)-4-quinolinamine]	+++ (90-100% control at 100 ppm)	+ (20-89% control at 400 ppm)	++ (90-100% control at 400 ppm)	- (0-19% control at 400 ppm)	+++ (90-100% control at 100 ppm)	+++ (90-100% control at 100 ppm)	- (0-19% control at 400 ppm)	- (0-19% control at 400 ppm)	0	0	0	0	0		0		0			0
COc1cccc(CCNc2ccnc3cc(Cl)ccc23)c1 [Example 43, 7-chloro-N-[2-(3-methoxyphenyl)ethyl]-4-quinolinamine]	+ (20-89% control at 400 ppm)	+ (20-89% control at 400 ppm)	- (0-19% control at 400 ppm)	- (0-19% control at 400 ppm)	++ (90-100% control at 400 ppm)	+++ (90-100% control at 100 ppm)	- (0-19% control at 400 ppm)	- (0-19% control at 400 ppm)	0	0	0	0	0		0		0			0
Clc1ccc(CCNc2ccnc3cc(Cl)ccc23)c(Cl)c1 [Example 44, 7-chloro-N-[2-(2,4-dichlorophenyl)ethyl]-4-quinolinamine]	+++ (90-100% control at 100 ppm)	+ (20-89% control at 400 ppm)	+ (20-89% control at 400 ppm)	- (0-19% control at 400 ppm)	+++ (90-100% control at 100 ppm)	+++ (90-100% control at 100 ppm)	+ (20-89% control at 400 ppm)	- (0-19% control at 400 ppm)	0	0	0	0	0		0		0			0
COc1cc(CCNc2ccnc3cc(Cl)ccc23)cc(OC)c1 [Example 45, 7-chloro-N-[2-(3,5-dimethoxyphenyl)ethyl]-4-quinolinamine]	+ (20-89% control at 400 ppm)	++ (90-100% control at 400 ppm)	+ (20-89% control at 400 ppm)	- (0-19% control at 400 ppm)	++ (90-100% control at 400 ppm)	+++ (90-100% control at 100 ppm)	- (0-19% control at 400 ppm)	- (0-19% control at 400 ppm)	0	0	0	0	0		0		0			0
COc1ccc(CCNc2ccnc3ccc(C)cc23)cc1 [Example 46, N-[2-(4-methoxyphenyl)ethyl]-6-methyl-4-quinolinamine]	+ (20-89% control at 400 ppm)	++ (90-100% control at 400 ppm)	+ (20-89% control at 400 ppm)	- (0-19% control at 400 ppm)	++ (90-100% control at 400 ppm)	+++ (90-100% control at 100 ppm)	+ (20-89% control at 400 ppm)	+ (20-89% control at 400 ppm)	0	0	0	0	0		0		0			0
